Columns and labels:
[1] = target: Isoform A1-A of Heterogeneous nuclear ribonucleoprotein A1 (A1-A) 68-320] (Homo sapiens, UniProt P09651); assay: Surface Plasmon Resonance (SPR) Assay; settings: pH 4
Description: (§1) Recombinant full-length hnRNPA1 (aa 1-320) and truncated versions of hnRNPA1, including the N-terminal RNA binding domain (aa 1-196), the middle region (aa 182-268), and the C-terminal region (aa 268-320), were individually covalently coupled to a dextran matrix (CM5 chip) using a Biacore T200 system (GE Healthcare), following the manufacturer's protocols. Immobilized proteins were activated with N-hydroxysuccinimide and 1-ethyl-3-(3-dimethylaminopropyl) carbodiimide to form a […] between carboxyl moieties on the dextran and […] on the protein. hnRNPA1 variants were dissolved in 10 mM acetate buffer (full-length, pH 4; N-terminal RNA binding domain and the C-terminal region, pH 4.5; middle region, pH 5) to a concentration of 20 μg/ml and flowed over the activated surface for 5 min with PBS. Unreacted groups were blocked with ethanolamine. PBS containing 0.05% (v/v) P20 (surfactant) and 5% DMSO was used for priming and conditioning the surface of the chips. Quercetin was serially diluted (from 200 to 3 μM) in PBS buffer and maintained in DMSO (5% (v/v)) (final concentrations from 10 to 0.15 μM). The baseline response was determined for 120 s (30 μl/min) before perfusing the immobilized proteins with the compounds to allow association to occur. Dissociation was then monitored over a period of an additional 120 s. […]

[2] = target: Isoform A1-A of Heterogeneous nuclear ribonucleoprotein A1 (A1-A) (Homo sapiens, UniProt P09651); assay: Surface Plasmon Resonance (SPR) Assay; settings: pH 4
Description: as §1

Chain of Isoform A1-A of Heterogeneous nuclear ribonucleoprotein A1 (A1-A) (P09651 as listed by the source): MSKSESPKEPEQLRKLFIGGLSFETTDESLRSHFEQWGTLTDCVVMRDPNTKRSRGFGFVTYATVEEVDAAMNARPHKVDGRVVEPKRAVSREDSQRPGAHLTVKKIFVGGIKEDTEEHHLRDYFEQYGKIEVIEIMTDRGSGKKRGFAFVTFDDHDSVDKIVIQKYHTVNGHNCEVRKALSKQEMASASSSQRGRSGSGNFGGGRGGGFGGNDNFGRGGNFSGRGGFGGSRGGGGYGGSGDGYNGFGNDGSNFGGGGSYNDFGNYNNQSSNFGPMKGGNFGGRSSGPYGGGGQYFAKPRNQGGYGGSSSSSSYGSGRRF
Chain of Isoform A1-A of Heterogeneous nuclear ribonucleoprotein A1 (A1-A) 68-320] (P09651 320-372): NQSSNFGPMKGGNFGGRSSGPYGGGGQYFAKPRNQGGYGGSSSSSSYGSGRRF

## O=c1c(O)c(-c2ccc(O)c(O)c2)oc2cc(O)cc(O)c12 [2-(3,4-dihydroxyphenyl)-3,5,7-trihydroxy-chromone;hydrate]
[1]
  Kd: 1.7 µM
[2]
  Kd: 8.9 µM
